Columns and labels:
[1] = biological target: T1, Human Phosphorylase Uridine 1 (hUP1) (Homo sapiens, UniProt Q16831); experiment: hUP1 enzymatic assay, inhibition at 1 μM (UV absorbance of uridine at 280 nm); type: biochemical; details: 1 μM compound, 37° C.
Experimental: (§1) The enzymatic activity of the hUP1 is performed through the enzymatic essay using one spectrophotometer UV/visible where the absorbance reduction of uridine in 280 nm, for 1 min and at 37° C. was monitored.
For determining which inhibitors would be selected for determining the inhibition constant (Ki), one cut point of 1 μM was stipulated, where only those compounds that would inhibit more than 60% of the initial activity of the enzyme would be selected for this type of analysis (Table 1). From all compounds tested, 7 molecules had its inhibition above 60% with the concentration of 1 μM (Compounds c1, c2, c3, c4, c6, c12, and c13). All essays described on this patent application were performed for these compounds and for benzil acyclo uridine (BAU), in order to perform a direct comparison of the results achieved with the better in vitro inhibitor of the hUP1 described (standard).

[2] = biological target: T1, Human Phosphorylase Uridine 1 (hUP1); experiment: Ki and inhibition type from substrate saturation curves, double-reciprocal analysis; type: biochemical; details: for Inhibiting type for phosphate: substrate Pi; for Inhibition type for uridine: substrate uridine
Experimental: as §1
For determining Ki for the selected inhibitors, we performed saturation curves where the concentration of one of the substrates is fixed next to the Km and the concentration of another, varied until the saturation in fixed-varying concentrations of each one of the inhibitors.
(I) v=VA/[Ka(1+I/Kii)+A(1+Kis)] (II) v=VA/[A(1+I/Kis)+Ka] (III)

[3] = biological target: hUP1 (Homo sapiens, UniProt Q16831); experiment: isothermal titration microcalorimetry (ITC), free enzyme; type: binding
Experimental: (§2) For determining the thermodynamic parameters (enthalpy variation—ΔH, entropy variation—ΔS, and free energy variation of Gibbs—ΔG) were performed compounds binding essays to the enzyme in different conditions: free enzyme, complexed enzyme with the substrate Pi, and the complexed enzyme with the product ribose-1-phosphate (R1P). For such analyses, it was used isothermal titration microcalorimetry (ITC) where the equipment monitors the difference of transferred heat, between the reference cell and the sample cell, when bindings are formed or broken during the binding process. The data analysis achieved was performed through the model One Set of Sites and the determination of ΔG and the dissociation constant (KD) were through the equations (IV) and (V) below, respectively: ΔG=ΔH−TΔS (IV) KD=1/Ka (V)

[4] = biological target: hUP1-Pi (Homo sapiens, UniProt Q16831); experiment: isothermal titration microcalorimetry (ITC), enzyme complexed with substrate Pi; type: binding
Experimental: as §2

[5] = biological target: hUP1-R1P (Homo sapiens, UniProt Q16831); experiment: isothermal titration microcalorimetry (ITC), enzyme complexed with product ribose-1-phosphate; type: binding
Experimental: as §2

[6] = system: intestinal mucositis caused by 5-FU; experiment: intestinal mucositis model caused by 5-FU (weight, diarrhea, villus histology); type: in vivo, female Wistar mouse
Experimental: The compound c3 was tested in in vivo for evaluating its protection regarding intestinal mucositis caused by 5-FU. The mucositis model was developed in female Wistar mouse (180-200 g) and the animals were divided into 5 groups with 4 animals in each group: Group 1: Saline+Saline Group 2: Compound c3 (150 mg/kg)+saline Group 3: Saline+5-FU (50 mg/kg) Group 4: Compound c3 (50 mg/kg)+5-FU (50 mg/kg) Group 5: Compound c3 (150 mg/kg)+5-FU (50 mg/kg) The test compound was administrated via oral, 30 minutes before administrating the chemotherapeutic 5-FU that was administrated via intraperitoneal. This treatment was followed for 5 days with once a day administrations. In the 5th treatment day, the animals were euthanized using one inhalational anesthetic (isoflurane) and the initial portion of the intestine (corresponding to jejunum and ileus) was collected for myeloperoxidase analysis (MPO) and histological analysis of the tissue, as well blood collect for quantification analysis of the uridine in the plasma. The animals were also followed-up regarding weight loss and diarrhea.

Chain of hUP1 (Q16831 whole entry): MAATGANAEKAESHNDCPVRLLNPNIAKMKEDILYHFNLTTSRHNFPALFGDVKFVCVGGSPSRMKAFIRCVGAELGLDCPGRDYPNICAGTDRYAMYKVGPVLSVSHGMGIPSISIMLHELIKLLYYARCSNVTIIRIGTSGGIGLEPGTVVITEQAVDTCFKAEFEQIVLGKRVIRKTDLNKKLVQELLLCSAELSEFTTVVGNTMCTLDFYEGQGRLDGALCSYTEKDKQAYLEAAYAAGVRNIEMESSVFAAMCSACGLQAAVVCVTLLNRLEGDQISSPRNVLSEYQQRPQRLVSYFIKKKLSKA
Chain of hUP1-Pi (Q16831 whole entry): as above
Chain of hUP1-R1P (Q16831 whole entry): as above
T1 sequence (Q16831 whole entry): as above

inhibition at 1 µM [1]	Inhibition with 1 μM (%) [1]	Inhibiting type for phosphate [2]	Inhibition type for uridine [2]	Kd [3]	ΔG° [3]	ΔH° [3]	−TΔS (kcal/mol/deg) [3]	Kd ([5]; hUP1-R1P 50 μM)	ΔG° ([5]; hUP1-R1P 50 μM)	ΔH° ([5]; hUP1-R1P 50 μM)	−TΔS (kcal/mol/deg) ([5]; hUP1-R1P 50 μM)	Kd ([5]; hUP1-R1P 150 μM)	ΔG° ([5]; hUP1-R1P 150 μM)	ΔH° ([5]; hUP1-R1P 150 μM)	−TΔS (kcal/mol/deg) ([5]; hUP1-R1P 150 μM)	SMILES	also measured
25%	–	–	–	–	–	–	–	–	–	–	–	–	–	–	–	CCN(CC)Cc1c(O)[nH]c(=O)c(C#N)c1C [Compound c9]	–
20%	–	–	–	–	–	–	–	–	–	–	–	–	–	–	–	CCCN(CCC)Cc1c(O)[nH]c(=O)c(C#N)c1C [Compound c10]	–
> 60%	78%	Uncompetitive	Competitive	20 ± 2.63 µM	-6.7 ± 0.9 kcal/mol	-22 ± 2.2 kcal/mol	15 ± 2.0 kcal/mol/deg	4.6 ± 0.344 µM	-7.5 ± 0.5 kcal/mol	-22 ± 0.5 kcal/mol	14 ± 1.0 kcal/mol	9.4 ± 1.04 µM	-7.1 ± 0.8 kcal/mol	-18 ± 0.8 kcal/mol	11 ± 1.2 kcal/mol	Cc1c(CNCC(O)CO)c(O)[nH]c(=O)c1C#N (stereo not shown) [c4]	Kd [4]: 0.263 ± 0.026 µM; ΔG° [4]: -9.3 ± 0.9 kcal/mol; ΔH° [4]: -19 ± 0.1 kcal/mol; −TΔS (kcal/mol/deg) [4]: 10 ± 1.0 kcal/mol/deg
43%	–	–	–	–	–	–	–	–	–	–	–	–	–	–	–	Cc1c(Cc2ccccc2)c(O)[nH]c(=O)c1C#N [Compound c11]	–
2%	–	–	–	–	–	–	–	–	–	–	–	–	–	–	–	O=c1[nH]cc(CNCCO)c(=O)[nH]1 [Compound c14]	–
–	–	–	–	–	–	–	–	–	–	–	–	–	–	–	–	O=c1[nH]cc(F)c(=O)[nH]1 [Compound 5-FU, 5-fluorouracil, reference compound]	diarrhea ([6]; 5-FU 50 mg/kg intraperitoneal, once a day, all groups that received the chemotherapeutic): developed severe diarrhea; weight loss ([6]; 5-FU 50 mg/kg intraperitoneal, once a day, with or without the compound, day 1 vs day 6): had a weight loss and this was significant; intestinal villus (histological analysis) ([6]; group that received only 5-FU, 50 mg/kg intraperitoneal): villus totally damaged
–	81%	Uncompetitive	Competitive	4.2 ± 0.602 µM	-7.6 ± 1.1 kcal/mol	-6.7 ± 0.2 kcal/mol	0.8 ± 0.1 kcal/mol/deg	7.4 ± 0.381 µM	-7.2 ± 0.4 kcal/mol	-22 ± 0.4 kcal/mol	14 ± 0.7 kcal/mol	10 ± 1.32 µM	-7.0 ± 0.9 kcal/mol	-23 ± 0.1 kcal/mol	16 ± 2.1 kcal/mol	Cc1c(CN(C)C)c(O)[nH]c(=O)c1C#N [c1]	Kd [4]: 0.312 ± 0.073 µM; ΔG° [4]: -9.1 ± 2.1 kcal/mol; ΔH° [4]: -12 ± 0.2 kcal/mol; −TΔS (kcal/mol/deg) [4]: 2.6 ± 0.6 kcal/mol/deg
–	82%	Uncompetitive	Competitive	5.3 ± 0.674 µM	-7.4 ± 1.0 kcal/mol	–	16 ± 2.0 kcal/mol/deg	7 ± 0.661 µM	-7.3 ± 0.7 kcal/mol	-18 ± 0.4 kcal/mol	10 ± 1.0 kcal/mol	7 ± 2.12 µM	-7.3 ± 2.2 kcal/mol	-10 ± 1.0 kcal/mol	3.3 ± 1.0 kcal/mol	Cc1c(CNC(CO)CO)c(O)[nH]c(=O)c1C#N [c6]	Kd [4]: 0.502 ± 0.083 µM; ΔG° [4]: -9.0 ± 1.5 kcal/mol; ΔH° [4]: -14 ± 0.2 kcal/mol; −TΔS (kcal/mol/deg) [4]: 5.0 ± 0.8 kcal/mol/deg
> 60%	80%	Uncompetitive	Competitive	2 ± 0.221 µM	-8.0 ± 0.9 kcal/mol	-23 ± 0.5 kcal/mol	14 ± 1.5 kcal/mol/deg	2.3 ± 0.423 µM	-8.0 ± 1.5 kcal/mol	-17 ± 0.6 kcal/mol	9.5 ± 1.7 kcal/mol	3.8 ± 0.553 µM	-7.6 ± 1.1 kcal/mol	-30 ± 1.5 kcal/mol	23 ± 3.3 kcal/mol	Cc1c(CNCCO)c(O)[nH]c(=O)c1C#N [c2]	Kd [4]: 0.151 ± 0.034 µM; ΔG° [4]: -9.5 ± 2.1 kcal/mol; ΔH° [4]: -16 ± 0.2 kcal/mol; −TΔS (kcal/mol/deg) [4]: 6.4 ± 1.4 kcal/mol/deg
–	62%	Not competitive	Not competitive	12 ± 1.82 µM	-6.9 ± 1.0 kcal/mol	-8.7 ± 0.7 kcal/mol	1.7 ± 0.2 kcal/mol/deg	1.3 ± 0.197 µM	-8.1 ± 1.2 kcal/mol	-27 ± 0.7 kcal/mol	19 ± 2.9 kcal/mol	1.3 ± 0.435 µM	-8.0 ± 2.7 kcal/mol	-35 ± 2.1 kcal/mol	27 ± 9.1 kcal/mol	Cc1cc(O)[nH]c(=O)c1C#N [c13]	–
49%	–	–	–	–	–	–	–	–	–	–	–	–	–	–	–	Cc1c(CN2CCCCC2)c(O)[nH]c(=O)c1C#N [Compound c5]	–
> 60%	67%	Not Competitive	Not competitive	2.9 ± 0.554 µM	-7.8 ± 1.5 kcal/mol	-9.6 ± 0.3 kcal/mol	1.7 ± 0.3 kcal/mol/deg	0.108 ± 0.018 µM	-9.8 ± 1.6 kcal/mol	-15 ± 0.1 kcal/mol	5.7 ± 0.9 kcal/mol	0.127 ± 0.048 µM	-9.7 ± 3.7 kcal/mol	-18 ± 0.5 kcal/mol	8.5 ± 3.2 kcal/mol	N#Cc1ccc(O)[nH]c1=O [c12]	–
25%	–	–	–	–	–	–	–	–	–	–	–	–	–	–	–	CCc1cc(O)[nH]c(=O)c1C#N [Compound c8]	–
42%	–	–	–	–	–	–	–	–	–	–	–	–	–	–	–	N#Cc1c(-c2ccccc2)cc(O)[nH]c1=O [Compound c7]	–

Reference: US9700547B2, “Use of 6-hydroxy-2-pyridones and derivatives thereof for preparing a pharmaceutical composition that acts by inhibiting the human uridine phosphorylase enzyme” (UNIÃO BRASILEIRA DE EDUCAÇÃO E ASSISTÊNCIA, MANTENEDORA DA …, priority 2013, dated 2017)
